Source: patent US10112918B2, “15-oxospiramilactone derivatives, preparation method and uses thereof” (Kunming Institute of Botany, The Chinese Academy of Sciences, priority 2013, dated 2018)
Where two headings read alike, the source gives them in different places. Values belong to the compound of their own block, whether it stands above or below them.

How the values were obtained:
Assay type in all cases: cell-based
[1] = test system: HL-60 (human promyelocytic leukemia cells); assay: MTT inhibition of tumor cell growth, HL-60; conditions: Homo sapiens, HL-60, 48 h
How it was run: (§1)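 IC50 values derive from a 5-concentration re-screen following a 40 μM primary test, with 48 h treatment and MTT colorimetry at 595 nm.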

[2] = test system: SMMC-7721 (human hepatoma cells); assay: MTT inhibition of tumor cell growth, SMMC-7721; conditions: Homo sapiens, SMMC-7721, 48 h
How it was run: as §1

[3] = test system: A-549 (Human lung adenocarcinoma cells); assay: MTT inhibition of tumor cell growth, A-549; conditions: Homo sapiens, A549, 48 h
How it was run: as §1

[4] = test system: MCF-7 (human breast cancer cells); assay: MTT inhibition of tumor cell growth, MCF-7; conditions: Homo sapiens, MCF7, 48 h
How it was run: as §1

[5] = test system: SW-480 (human colon cancer cells); assay: MTT inhibition of tumor cell growth, SW-480; conditions: Homo sapiens, SW480, 48 h
How it was run: as §1

[6] = test system: Wnt signaling pathway (Top-Flash reporter gene); assay: Top-Flash Wnt reporter gene assay in HEK293T cells with Wnt3a conditioned medium; conditions: Homo sapiens, HEK-293T, 6 h, HEK293T, Wnt3a conditioned medium, 6 h
How it was run: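 HEK293T transfected with TOP-flash (5 ng/well) plus GFP plasmid for normalization, then treated 6 h with mouse Wnt3a conditioned medium from L cells, with or without compound. GFP-normalized luciferase minus DMSO-only background, scaled to Wnt-induced activity; IC50 at 0.5 relative residual activity from 4-parameter logistic fit.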

[7] = Table 2, derivatives having potential Michael reaction acceptor
[8] = Table 2, derivatives having potential Michael reaction acceptor, read-out: IC50 SW-480
[9] = Table 9, read-out: IC50(μM), inhibitory activity on the Wnt signaling pathway
[10] = Table 5, derivatives having double Michael reaction acceptor
[11] = Table 5, derivatives having double Michael reaction acceptor, read-out: IC50 SW-480
[12] = Table 1, 7-hydroxy derivatives of S-3
[13] = Table 1, 7-hydroxy derivatives of S-3, read-out: IC50 SW-480
[14] = Table 7 (second), derivatives modified on 7-hydroxyl of S-3, read-out: IC50 (μM), inhibitory activity on the Wnt signaling pathway
[15] = Table 4, derivatives obtained by reduction of the lactonic ring
[16] = Table 4, derivatives obtained by reduction of the lactonic ring, read-out: IC50 SW-480
[17] = Table 3, single Michael reaction acceptor, modified lactonic ring
[18] = Table 3, single Michael reaction acceptor, modified lactonic ring, read-out: IC50 SW-480
[19] = Table 8, read-out: IC50 (μM), inhibitory activity on the Wnt signaling pathway
[20] = Table 6, 7-carbonyl derivatives, read-out: IC50 SW-480, 7-carbonyl derivatives

Compound: C=C1C(=O)[C@]23CC[C@H]1CC2[C@@]12CCC[C@@](C)(COC1=O)C2[C@H](Br)C3=O (stereo partly shown) [Compound 13]
IC50 [1, 7]: 3860 nM
IC50 [2, 7]: 830 nM
IC50 [3, 7]: 730 nM
IC50 [4, 7]: 1510 nM
IC50 [5, 8]: 1210 nM
IC50 [6, 9]: 16.5 ± 1.16 µM

Compound: C=C1C(=O)C23CC[C@H]1CC2[C@@]12CCC[C@@](C)(COC1=O)C2C[C@H]3OC(=O)C(F)(F)F (stereo partly shown) [Compound 1f]
IC50 [1, 12]: 5720 nM
IC50 [2, 12]: 13000 nM
IC50 [3, 12]: 6080 nM
IC50 [4, 12]: 2740 nM
IC50 [5, 13]: 7810 nM
IC50 [6, 14]: 20.2 ± 2.59 µM

Compound: C[C@]12CCC[C@@]3(C(=O)OC1)C1C[C@@H]4CCC1(C(=O)[C@@H]4CN1CCOCC1)[C@H](O)CC23 (stereo partly shown) [Compound 76]
IC50 [1, 7]: 5280 nM
IC50 [2, 7]: 13100 nM
IC50 [3, 7]: 4040 nM
IC50 [4, 7]: 5960 nM
IC50 [5, 8]: 7690 nM
IC50 [6, 9]: > 60 µM

Compound: C[C@]12CCC[C@@]3(C(=O)OC1)C1C[C@@H]4CCC1(C(=O)[C@H]4CN1CCOCC1)[C@H](O)CC23 (stereo partly shown) [Compound 75]
IC50 [1, 7]: 3780 nM
IC50 [2, 7]: 5970 nM
IC50 [3, 7]: 3640 nM
IC50 [4, 7]: 4120 nM
IC50 [5, 8]: 8010 nM
IC50 [6, 9]: > 60 µM

Compound: C=C1C(=O)[C@]23CC[C@H]1CC2[C@@]12CCC[C@@](C)(COC1=O)C2C[C@H]3OC=O (stereo partly shown) [Compound 1a]
IC50 [1, 12]: 2390 nM
IC50 [2, 12]: 1670 nM
IC50 [3, 12]: 2180 nM
IC50 [4, 12]: 2740 nM
IC50 [5, 13]: 1960 nM
IC50 [6, 14]: 18.3 ± 0.66 µM

Compound: C=C1C(=O)C23CC[C@H]1CC2[C@@]12CCC[C@@](C)(COS(=O)OC1)C2C[C@H]3O (stereo partly shown) [Compound 41]
IC50 [1, 17]: 1580 nM
IC50 [2, 17]: 900 nM
IC50 [3, 17]: 2180 nM
IC50 [4, 17]: 2240 nM
IC50 [5, 18]: 2090 nM
IC50 ([5]; Table 6, 7-hydroxyl derivatives and controls, read-out: IC50 SW-480, 7-hydroxyl derivatives): 2090 nM
IC50 [6, 19]: > 60 µM

Next, values leading:

IC50 [1, 10]: 800 nM
IC50 [2, 10]: 800 nM
IC50 [3, 10]: 910 nM
IC50 [4, 10]: 1440 nM
IC50 [5, 11]: 1210 nM
IC50 [6, 9]: 11.1 ± 0.63 µM
Compound: C=C1C(=O)[C@]23CC[C@H]1CC2[C@@]12CCC[C@@](C)(COC1=O)C2=CC3=O (stereo partly shown) [Compound 15]

IC50 [1, 10]: 240 nM
IC50 [2, 10]: 130 nM
IC50 [3, 10]: 140 nM
IC50 [4, 10]: 150 nM
IC50 [5, 11]: 100 nM
IC50 ([5]; Table 6, double Michael reaction acceptor derivatives, read-out: IC50 SW-480, derivatives having double Michael reaction acceptor): 130 nM
IC50 [6, 9]: 4.92 ± 0.69 µM
Compound: C=C1C(=O)C23CC[C@@H](CC2[C@]2(COC(C)=O)CCC[C@@](C)(COC(=O)c4cccs4)C12)C(=C)C3=O (stereo partly shown) [Compound 67]

IC50 [1, 15]: 4280 nM
IC50 [2, 15]: 4480 nM
IC50 [3, 15]: 4280 nM
IC50 [4, 15]: 8070 nM
IC50 [5, 16]: 4420 nM
IC50 ([6]; Table 10, read-out: IC50 (μM), inhibitory activity on the Wnt signaling pathway): 27.7 ± 2.8 µM
Compound: C=C1C(=O)C23CC[C@H]1CC2[C@]1(CO)CCC[C@@](C)(CO)C1C[C@H]3O (stereo partly shown) [Compound 46]

IC50 [1, 7]: 5030 nM
IC50 [2, 7]: 6130 nM
IC50 [3, 7]: 3040 nM
IC50 [4, 7]: 2930 nM
IC50 [5, 8]: 3940 nM
IC50 [6, 9]: 46.9 ± 1.26 µM
Compound: C=C1C(=O)C23CC[C@H]1CC2[C@]1(COC(C)=O)CCC[C@@](C)(COC(C)=O)C1[C@H](CO)C3=O (stereo partly shown) [Compound 48]

IC50 [1, 15]: 610 nM
IC50 [2, 15]: 570 nM
IC50 [3, 15]: 700 nM
IC50 [4, 15]: 670 nM
IC50 [5, 16]: 590 nM
IC50 [5, 20]: 710 nM
IC50 [6, 19]: 7.83 ± 0.7 µM
Compound: C=C1C(=O)C23CC[C@H]1CC2[C@]1(COC(=O)c2cccs2)CCC[C@@](C)(COC(=O)c2cccs2)C1CC3=O (stereo partly shown) [Compound 64]

IC50 [1, 17]: 1460 nM
IC50 [2, 17]: 510 nM
IC50 [3, 17]: 670 nM
IC50 [4, 17]: 1570 nM
IC50 [5, 18]: 2200 nM
IC50 [5, 20]: 2560 nM
IC50 [6, 19]: 17.6 ± 1.9 µM
Compound: C=C1C(=O)[C@]23CC[C@H]1CC2[C@@]12CCC[C@@](C)(CO[C@H]1OC)C2CC3=O (stereo partly shown) [Compound 22]
